Reference: patent publication US10265321B2, “Uses of salt-inducible kinase (SIK) inhibitors” (Dana-Farber Cancer Institute, Inc., priority 2014, dated 2019)

Experiments:
SIK2 = biological target: T1, SIK2 (Homo sapiens, UniProt Q9H0K1); assay: Protein kinase assay ([γ-32P] ATP, phosphocellulose paper) against SIK2; format: biochemical; settings: for remaining activity at 0.1 µM / remaining activity at 1 µM: DMSO set to 100%; for remaining activity at 0.1 µM: read-out: Activity of protein kinase treated with 0.1 μM of I-1 (% control (DMSO)) SIK2; for remaining activity at 1 µM: read-out: Activity of protein kinase treated with 1 μM of I-1 (% control (DMSO)) SIK2; for IC50: read-out: Enzyme Inhibition IC50 SIK2
T1 construct: made in house
T1 sequence (Q9H0K1 whole entry): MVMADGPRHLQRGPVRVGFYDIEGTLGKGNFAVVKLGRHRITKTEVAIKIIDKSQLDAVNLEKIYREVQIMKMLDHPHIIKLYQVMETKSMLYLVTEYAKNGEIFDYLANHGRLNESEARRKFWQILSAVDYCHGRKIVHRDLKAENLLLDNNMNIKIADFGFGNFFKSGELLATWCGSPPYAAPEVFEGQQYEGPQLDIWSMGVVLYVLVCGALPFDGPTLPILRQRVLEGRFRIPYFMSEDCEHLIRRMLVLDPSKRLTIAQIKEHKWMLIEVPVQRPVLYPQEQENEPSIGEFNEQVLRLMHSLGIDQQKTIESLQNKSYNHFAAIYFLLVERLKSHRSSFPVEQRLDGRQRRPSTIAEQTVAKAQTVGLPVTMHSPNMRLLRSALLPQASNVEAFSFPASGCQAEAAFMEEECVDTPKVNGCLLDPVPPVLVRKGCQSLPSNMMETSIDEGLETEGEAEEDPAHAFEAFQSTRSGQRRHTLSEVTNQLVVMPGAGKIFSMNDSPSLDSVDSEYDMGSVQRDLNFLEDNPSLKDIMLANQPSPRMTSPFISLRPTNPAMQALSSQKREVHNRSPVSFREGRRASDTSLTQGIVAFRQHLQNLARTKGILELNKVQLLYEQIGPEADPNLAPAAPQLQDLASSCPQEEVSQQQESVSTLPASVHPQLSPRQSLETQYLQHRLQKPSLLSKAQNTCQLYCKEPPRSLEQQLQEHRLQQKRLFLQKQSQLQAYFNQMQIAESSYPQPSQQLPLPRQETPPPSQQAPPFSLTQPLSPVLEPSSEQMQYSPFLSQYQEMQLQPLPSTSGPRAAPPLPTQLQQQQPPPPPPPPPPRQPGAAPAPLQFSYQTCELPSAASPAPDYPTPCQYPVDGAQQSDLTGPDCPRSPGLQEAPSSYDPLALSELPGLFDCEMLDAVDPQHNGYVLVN
Protocol: (§1) Bone marrow-derived DCs were differentiated from C57BL/6 bone marrow in the presence of GM-CSF-conditioned media. CD11c^+ CX3CR1^hi myeloid cells and CD11c^+ CX3CR1^− DCs were isolated from the small intestine lamina propria of Cx3cr1^eGFP/+ mice (12). Detection of cell-surface Thy1.1 expression on BMDCs from 10BiT reporter mice was conducted as described previously (24). Cell viability was estimated by change in total cellular ATP levels using CellTiterGlo assays (Promega). Preparation of recombinant SIK proteins and IC50 measurements were conducted as described previously (21). Total RNA was extracted using a NucleoSpin 96 RNA isolation kit (Macherey-Nagel) followed by cDNA synthesis and multiplex RT-PCR using a microfluidic dynamic array (Fluidigm). The concentrations of TNF-α, IL-6, IL-10, IL-12p40, IL-1β and RANTES in culture supernatants were detected using a FlexSet Cytometric bead array (BD Biosciences). Alternatively, IL-10 secretion was quantified using ELISA (BD Biosciences) or AlphaLISA (PerkinElmer) assays. NO production was estimated based on nitrate content in culture medium using the Greiss reagent.
In another set of experiments, the activities of the SIK inhibitors described herein against SIK were determined according to the methods reported in Hastie et al., Nature Protocols, 2006, 1, 968-971.
This buffer consisted of 50 mM Tris-HCl, pH 7.5, 0.1 mM EGTA, 1 mg ml^−1 bovine serum albumin and 0.1% (vol/vol) 2-mercaptoethanol.
An assay buffer of 500 mM Tris-HCl, pH 7.5, 1 mM EGTA, and 100 mM magnesium acetate was used for the protein kinase assay.
The specific activity of the [γ-^32P] ATP solution was 1×10^5 to 1×10^6 c.p.m. per nmol depending on what was needed to produce an optimal signal/noise ratio. Stocks of nonradioactive (“cold”) ATP were dissolved in 10 mM HEPES, and the pH of the resulting stock solutions was adjusted to 7.4. To measure the concentration of ATP, a sample of such a stock solution was diluted to 20 μM, and the absorbance of the diluted sample was measured at 259 nm. The absorbance of a 20-μM stock solution of ATP at 259 nm was about 0.31. The 1-mM solution of cold ATP was “spiked” with [γ-^32P] ATP to produce a radioactivity of 1×10^5 to 1×10^6 c.p.m. per nmol.
1) The number of assay samples needed was determined based on, e.g., the following considerations: (i) each condition was assayed in duplicate; (ii) two controls containing peptide or protein substrate and ATP but no SIK were included to assess contamination by any free ATP not incorporated into substrate, alongside two controls lacking a peptide or protein substrate but containing ATP and SIK to correct for any incorporation of phosphate into the kinase itself (e.g., autophosphorylation); and (iii) a maximum of 40 samples were assayed manually at one time by a single person. Microcentrifuge tubes were label distinctly and were placed on ice.
4) Dilute the SIK in enzyme dilution buffer and place on ice.
5) Pipette 5 j±l of 10× concentrated assay buffer, 5 j±l peptide or protein substrate (the two “no-substrate” control tubes had 5 j±l water added instead of peptide or protein substrate), and 30 μl distilled water into each tube. Keep the tubes on ice.
6) Add 5 μl diluted SIK to each tube, except for the two “no-enzyme” control tubes, which had 5 μl enzyme dilution buffer added, and still keeping the tubes on ice. In some cases, premixed “cocktails” of assay components were prepared containing peptide or protein substrate, assay buffer, and distilled water to limit the number of additions to each assay tube. Each of steps 7 to 14 was done behind a plexiglass shield.
7) Insert each tube into the water bath at intervals of 15 s to allow the assay mixture to reach 30° C. Begin the SIK reactions by adding 5 μl of 1 mM [γ-^32P] ATP to each tube at intervals of 15 s. Close each tube, vortex for 1 s to mix the contents and immediately replace in a rack in the water bath. Incubate for 10 min at 30° C. […]

BMDCs = assay: Cell viability of BMDCs (CellTiter-Glo, cellular ATP); format: cell-based, mouse; settings: Mus musculus, BMDC; zymosan-stimulated BMDCs; read-out: Viability loss EC50
Protocol: as §1
BMDCs were seeded into black 384-well plates (Corning) at 20,000 cells/well in 40 μL complete DMEM using a Multidrop COMBI (Thermal Scientific) followed by incubation at 37° C. for 2 hr to allow for plate adherence. SIK inhibitors (100 nL/well) were pin-transferred from concentrated DMSO stocks using CyBi-Well Vario (CyBio) into duplicate plates. For each treatment plate, 32 out of 384 wells were pinned with DMSO as negative control and 32 out of 384 wells were pinned with PGE2 (5 μM final concentration). Two days after SIK inhibitor treatment, BMDCs were stimulated with zymosan (4 μg/mL final concentration) dispersed in culture medium (20 μL/well) using a Multidrop COMBI. After 18 hr, 5 μL of resulting supernatant was transferred from the culture plate to white 384-well AlphaLISA plates (Perkin Elmer) using a CyBi-Well Vario. IL-10 abundance in the supernatants was determined using an AlphaLISA assay (PerkinElmer) according to the manufacture's protocol and signal intensity measured using an EnVision multimode plate reader. SIK inhibitor activity was expressed as a % of the differences between the mean abundance of IL-10 in PGE2 versus DMSO wells on a per plate basis. Cell viability assays were conducted on the same tissue culture plates as the IL-10 assay. First media was removed and replaced by solution of 50% (vol/vol) CellTiter-Glo (Promega) in PBS. Luminescence was read using an Envision multimode plate reader, and signal intensity calculated relative to DMSO control wells on a per plate basis.

SMILES	remaining activity at 0.1 µM (SIK2) [%]	remaining activity at 1 µM (SIK2) [%]	IC50 (SIK2) [nM]	EC50 (BMDCs) [nM]
CCN1CCN(c2ccc(Nc3cc(-n4ccnc4Nc4c(C)cccc4C)ncn3)cc2)CC1 [II-1, 6-(2-((2,6-dimethylphenyl)amino)-1H-imidazol-1-yl)-N-(4-(4-ethylpiperazin-1-yl)phenyl)pyrimidin-4-amine]	37	9	65.1	19.5
Cc1cccc(C)c1NC(=O)N1C/C=C\COc2cccc(c2)Nc2cc1ncn2 [I-1]	10	5	9.72	10000
